{
  "source": "patent US9427408B2",
  "about": "“Silica-matrix forming compositions, materials formed therefrom, and methods of using the same” (priority 2011, dated 2016)",
  "key": {"[1]": {"test_system": "HFF cells", "assay_type": "cell-based", "conditions": "0.19 and 0.38 M EG, 48 h incubation", "protocol": "(§1) Human foreskin fibroblasts (HFF), and mouse embryonic fibroblasts (MEF) were obtained from the American Type Cell Collection (Manasas, Va.). HFF and MEF cells were cultured in DMEM basal media supplemented with 15% fetal bovine serum (FBS), and 1% penicillin/streptomycin. Cells were incubated in a 5% CO2 atmosphere at 37° C. until they reached 80-90% confluence. Cells were then washed with phosphate buffer saline (PBS) and trypsinized with 0.25% Trypsin-EDTA for 5 min at 37° C. For cytotoxicity measurements and encapsulation experiments, cells were centrifuged at 800 rpm for 5 min. The supernatant was removed and the pelleted cells were suspended in their own growth media at a concentration of about 500,000 cells/ml.\n(§2) Membrane integrity of the encapsulated cells in silica and SPEG gels was measured using a live-dead fluorescence assay containing Hoechst (H) and Propidium Iodide (PI) fluorescent dyes. A Nikon Eclipse T200 microscope (Nikon Instruments Inc., Melville, N.Y.) equipped with 10×, and 20× objectives were used to collect the bright field and fluorescent images.\n(§3) MA of the encapsulated cells was measured with alamar blue (AB) fluorescence. For fluorescence measurements a SpectraMAX Gemini microplate reader (Molecular Devices Inc, Sunnyvale, Calif.) was used. The samples were excited at 540 nm and their emission was measured at 590 nm. LDH assay was performed 24 h after encapsulation of the cells. The assay was performed using a commercially available kit (Roche Applied Science, Indianapolis, Ind.). The levels of extracellular LDH activity were determined using a UV-vis SpectraMAX microplate reader (Molecular Devices, Sunnyvale, Calif.) by absorbance at 492 nm.\n(§4) During the encapsulation process, mammalian cells were exposed to individual and aggregated SNPs in the surrounding solutions as gel formation proceeds. SNPs can be mildly cytotoxic. The toxicity of the encapsulation process was analyzed by incubating mammalian cells in 0.01 and 0.03 M SNP solutions. These were the concentrations used in the gels. After 24 h of incubation in the presence of SNPs, the cell membrane integrity and MA was measured.\n(§5) Another factor for cytotoxicity is the formation of cytotoxic by-products such as EG during the hydrolysis reaction. HFF and MEF cells were incubated with 0.19 and 0.38 M EG to test for cytotoxicity. The concentrations of EG used in these experiments were based on the stoichiometric reaction of 10% (v/v) THEOS assuming a complete reaction. […] FIG. 6 illustrates cytotoxicity of SNPs and EG on: (A) HFF, (B) MEF."}, "[2]": {"test_system": "MEF cells", "assay_type": "cell-based", "conditions": "0.19 and 0.38 M EG, 48 h incubation", "protocol": "as §1, §2, §3, §4, §5"}},
  "data": [
    {"smiles": "OCCO", "note": "[EG, ethylene glycol]", "values": [
      {"measurement": "cell membrane damage", "setting": "[1]", "value": "did not cause any cell membrane damage"},
      {"measurement": "effect on MA of the cells", "setting": "[1]", "value": "nor had any effects on the MA"},
      {"measurement": "cell membrane damage", "setting": "[2]", "value": "did not cause any cell membrane damage"},
      {"measurement": "effect on MA of the cells", "setting": "[2]", "value": "nor had any effects on the MA"}
    ]}
  ]
}
